The values below come from patent publication US20180228780A1, “3-(1H-PYRROLO[2,3-C]PYRIDIN-2-YL)-1H-INDAZOLES AND THERAPEUTIC USES THEREOF” (Samumed, LLC, priority 2015, published 2018).

Some results are limits rather than exact numbers.

What all share (assay type): cell-based
In one assay the test system is IL-6 (THP-1 cells). Briefly: IL-6 inhibition in THP-1 monocytes (HTRF). The conditions noted are these: Homo sapiens; for EC50: IL-6 inhibition, THP-1 cells, HTRF, 10-point dose-response starting from 10 μM; for inhibition at 10 µM: THP-1, read-out: percentage in parentheses printed under EC50 >10. Summed up: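 THP-1 cells serum-reduced (1% FBS, 24 h), plated 5000/well, stimulated with 500 ng/mL […] after 2 h and incubated a further 22 h at 37 °C. Secreted IL-6 quantified by HTRF (665/620 nm ratio), normalized to DMSO; EC50 from four-parameter fit, duplicates.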

Another assay deals with SW480 colon cancer cells. As to the kind of experiment: Cell viability assay (CellTiter-Blue) in SW480 colon cancer cells. Particulars: Homo sapiens; for EC50: 96 h, SW480 cell viability, four days incubation; for inhibition at 10 µM: SW480, read-out: percent inhibition at 10 μM. The method, boiled down: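 Fluorescence from resazurin reduced to resorufin by metabolically active cells was the read-out, taken after ~3 h with CellTiter-Blue.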

Assay [1] relates to Primary human fibroblasts derived from IPF patients (LL29 cells). As to the kind of experiment: Inhibition of the fibrotic process: αSMA staining in TGF-β1-treated LL29 fibroblasts. The conditions noted are these: Fibroblast; for EC50: 96 h, LL29 cells, TGF-β1 20 ng/mL, 4 days, % αSMA-positive cells; for inhibition at 10 µM: read-out: percent inhibition at 10 μM. Summed up: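 LL29 IPF-patient lung fibroblasts plated in F12 with 1% FBS, treated with TGF-β1 plus compound; TGF-β1/DMSO wells served as controls. After 4 days incubation, SYTOX green (1 μM final) added for 30 min at room temperature; αSMA staining used as fibrosis read-out.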

The subject of assay [2] is primary human mesenchymal stem cells (hMSCs). Briefly: Induction of chondrogenesis in hMSCs (nodule imaging, Rhodamine B / Nile Red). The conditions noted are these: 6 days; for Emax: relative to TGF-β3 (10 ng/mL) positive control, read-out: Max. Activity as % TGF-β3 activity; for EC50: concentration required to induce 50% levels of chondrogenesis vs TGF-β3, read-out: Conc (nM) of 50% TGF-β3 activity. The method, boiled down:
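Primary hMSCs at passage 3-6 were treated with compound; nodule area per well was normalized to the mean of 3 DMSO wells, averaged over 2-3 replicates, and the concentration giving 50% chondrogenesis relative to TGF-β3 control, plus maximum activity and its dose, was derived.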

In assay [3] the test system is Wnt activity (Sp5-Luc reporter, SW480 colon carcinoma cells). As to the kind of experiment: Screening assay for Wnt activity: Sp5-Luc reporter gene assay in SW480 cells. The conditions noted are these: Homo sapiens; for EC50: SW480 Sp5-Luc reporter, overnight incubation; for inhibition at 10 µM: SW480, read-out: percent inhibition at 10 μM. Summed up: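 SW480 colon carcinoma cells stably carrying Sp5 promoter (eight TCF/LEF sites)-driven firefly luciferase, plated at 4,000 cells/well in 1% FBS medium and incubated overnight at 37° C. Luminescence normalised to DMSO-only cells; EC50 from four-parameter variable-slope nonlinear regression.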

As to `c1cc2cc(-c3n[nH]c4ccc(-c5cncc(OCCN6CCCC6)c5)cc34)[nH]c2cn1` [Compound 658, 5-(5-(2-(Pyrrolidin-1-yl)ethoxy)pyridin-3-yl)-3-(1H-pyrrolo[2,3-c]pyridin-2-yl)-1H-indazole], the EC50 in the assay with IL-6 (THP-1 cells) was determined as 134 nM; with SW480 colon cancer cells, 3150 nM; in assay [1], 925 nM; in assay [3], 1840 nM. The Emax in assay [2] stood at 45%.
On to `CCC(=O)Nc1cncc(-c2ccc3[nH]nc(-c4cc5c(-c6cccc(F)c6)cncc5[nH]4)c3c2)c1` [Compound 1], for which the EC50 in the assay on IL-6 (THP-1 cells) turned out to be 45 nM; in the assay with SW480 colon cancer cells, 94 nM; in assay [1], 62 nM; in assay [3], 45 nM. Also, the Emax in assay [2] is 34%.
With `c1ccc(CNCc2cncc(-c3ccc4[nH]nc(-c5cc6c(-c7cccs7)cncc6[nH]5)c4c3)c2)cc1` [Compound 360], the EC50 with IL-6 (THP-1 cells) is 57 nM; in the assay with SW480 colon cancer cells, 835 nM; in assay [1] it was 187 nM; in assay [2], 10 nM; in assay [3], 578 nM. For the same molecule, the Emax in assay [2] came out at 57%.
As for `Nc1cncc(-c2ccc3[nH]nc(-c4cc5c(-c6ccccc6F)cncc5[nH]4)c3c2)c1` [Compound 59, 5-(3-(4-(2-Fluorophenyl)-1H-pyrrolo[2,3-c]pyridin-2-yl)-1H-indazol-5-yl)pyridin-3-amine], the EC50 is 4500 nM in the assay on IL-6 (THP-1 cells); over 10000 nM in the assay on SW480 colon cancer cells; 2900 nM in assay [1]; 10 nM in assay [2]; 875 nM in assay [3]. The inhibition at 10 µM with SW480 colon cancer cells worked out at 27.9%. Further, in assay [2], the Emax came out at 58%.
Consider `c1ncc(-c2ccc3[nH]nc(-c4cc5c(N6CCCCC6)cncc5[nH]4)c3c2)cn1` [Compound 195, 3-(4-(Piperidin-1-yl)-1H-pyrrolo[2,3-c]pyridin-2-yl)-5-(pyrimidin-5-yl)-1H-indazole], for which the EC50 in the assay with IL-6 (THP-1 cells) was 5610 nM; in the assay with SW480 colon cancer cells it was 2900 nM; in assay [1], 1080 nM; in assay [3] it was 1760 nM. For the same molecule, the Emax in assay [2] worked out at 38%.
As for `c1cncc(-c2cncc3[nH]c(-c4n[nH]c5ccc(-c6cncc(CN7CCCCC7)c6)cc45)cc23)c1` [Compound 99, 5-(5-(Piperidin-1-ylmethyl)pyridin-3-yl)-3-(4-(pyridin-3-yl)-1H-pyrrolo[2,3-c]pyridin-2-yl)-1H-indazole], the EC50 was 5700 nM in the assay on IL-6 (THP-1 cells), 3370 nM in the assay with SW480 colon cancer cells, 4040 nM in assay [1] and over 10000 nM in assay [3]. For the same molecule, in assay [2], the Emax was 40%. Besides, in assay [3], the inhibition at 10 µM is 31.2%.
`O=C(Nc1cncc(-c2ccc3[nH]nc(-c4cc5c(-c6cccc(F)c6)cncc5[nH]4)c3c2)c1)C1CC1` [Compound 20, N-(5-(3-(4-(3-Fluorophenyl)-1H-pyrrolo[2,3-c]pyridin-2-yl)-1H-indazol-5-yl)pyridin-3-yl)cyclopropanecarboxamide]: the EC50 came to 17 nM with IL-6 (THP-1 cells); 67 nM in the assay with SW480 colon cancer cells; 122 nM in assay [1]; 900 nM in assay [2]; 45 nM in assay [3]. Moreover, the Emax in assay [2] stood at 94%.
With `c1cc2cc(-c3n[nH]c4ccc(-c5cncc(CNCC6CCCC6)c5)cc34)[nH]c2cn1` [Compound 277, 1-(5-(3-(1H-Pyrrolo[2,3-c]pyridin-2-yl)-1H-indazol-5-yl)pyridin-3-yl)-N-(cyclopentylmethyl)methanamine], the EC50 in the assay with IL-6 (THP-1 cells) was found to be 31 nM; in the assay on SW480 colon cancer cells it was 1390 nM; in assay [1], 1390 nM; in assay [3], 1460 nM. Further, the Emax in assay [2] was found to be 49%.
As to `CC(C)Nc1cncc(-c2ccc3[nH]nc(-c4cc5c(-c6cccnc6)cncc5[nH]4)c3c2)c1` [Compound 96, N-Isopropyl-5-(3-(4-(pyridin-3-yl)-1H-pyrrolo[2,3-c]pyridin-2-yl)-1H-indazol-5-yl)pyridin-3-amine], the EC50 with IL-6 (THP-1 cells) was 128 nM; with SW480 colon cancer cells, 836 nM; in assay [1] it was 315 nM; in assay [3] it was 670 nM. In addition, the Emax in assay [2] is 42%.
For the molecule `Fc1cccc(-c2cncc3[nH]c(-c4n[nH]c5ccc(-c6cncc(CN7CCC(F)(F)C7)c6)cc45)cc23)c1` [Compound 26, 5-(5-((3,3-Difluoropyrrolidin-1-yl)methyl)pyridin-3-yl)-3-(4-(3-fluorophenyl)-1H-pyrrolo[2,3-c]pyridin-2-yl)-1H-indazole], the EC50 in the assay on IL-6 (THP-1 cells) worked out at 74 nM; in the assay on SW480 colon cancer cells, 734 nM; in assay [1], 322 nM; in assay [2] it was 2700 nM; in assay [3] it was 160 nM. In addition, the Emax in assay [2] stood at 87%.
Turning to `O=C(Nc1cncc(-c2ccc3[nH]nc(-c4cc5c(-c6cccnc6)cncc5[nH]4)c3c2)c1)c1ccccc1` [Compound 95], the EC50 with IL-6 (THP-1 cells) was 1710 nM; with SW480 colon cancer cells, over 10000 nM; in assay [1] it was over 10000 nM; in assay [2] it was 10 nM; in assay [3], over 10000 nM. The inhibition at 10 µM in the assay on SW480 colon cancer cells was found to be 22.7%; in assay [1], 34.2%; in assay [3], 32.4%. Moreover, in assay [2], the Emax stood at 69%.
Regarding `O=C(Nc1cncc(-c2ccc3[nH]nc(-c4cc5c(-c6ccncc6)cncc5[nH]4)c3c2)c1)C1CC1` [Compound 132, N-(5-(3-(4-(Pyridin-4-yl)-1H-pyrrolo[2,3-c]pyridin-2-yl)-1H-indazol-5-yl)pyridin-3-yl)cyclopropanecarboxamide], the EC50 in the assay on IL-6 (THP-1 cells) is 765 nM; in the assay on SW480 colon cancer cells, over 10000 nM; in assay [1], over 10000 nM; in assay [3], 395 nM. Further, the inhibition at 10 µM in the assay with SW480 colon cancer cells is 20.6%; in assay [1], 35.6%. Also, the Emax in assay [2] stood at 37%.
Take `Cc1ncc(-c2ccc3[nH]nc(-c4cc5c(-c6ccncc6)cncc5[nH]4)c3c2)n1C` [Compound 573, 5-(1,2-Dimethyl-1H-imidazol-5-yl)-3-(4-(pyridin-4-yl)-1H-pyrrolo[2,3-c]pyridin-2-yl)-1H-indazole]: the inhibition at 10 µM with IL-6 (THP-1 cells) came to 11%; in the assay on SW480 colon cancer cells it was 30.3%. For the same molecule, the EC50 with IL-6 (THP-1 cells) is over 10000 nM; in the assay with SW480 colon cancer cells, over 10000 nM; in assay [1] it was 2160 nM; in assay [3], 2900 nM. In addition, in assay [2], the Emax was determined as 28%.
`CN(C)Cc1cncc(-c2ccc3[nH]nc(-c4cc5c(-c6cccc(F)c6)cncc5[nH]4)c3c2)c1` [Compound 13, 1-(5-(3-(4-(3-Fluorophenyl)-1H-pyrrolo[2,3-c]pyridin-2-yl)-1H-indazol-5-yl)pyridin-3-yl)-N,N-dimethylmethanamine]: the EC50 was determined as 75 nM in the assay on IL-6 (THP-1 cells); 420 nM in the assay on SW480 colon cancer cells; 952 nM in assay [1]; 10 nM in assay [2]; 1280 nM in assay [3]. Also, in assay [2], the Emax came to 193%.
Take `CN(C)Cc1cncc(-c2ccc3[nH]nc(-c4cc5c(-c6cccc(F)c6)cncc5[nH]4)c3c2F)c1` [Compound 993, 1-(5-(4-Fluoro-3-(4-(3-fluorophenyl)-1H-pyrrolo[2,3-c]pyridin-2-yl)-1H-indazol-5-yl)pyridin-3-yl)-N,N-dimethylmethanamine]: the inhibition at 10 µM in the assay on IL-6 (THP-1 cells) came out at 18.1%; in assay [3], 46.8%. Moreover, the EC50 with IL-6 (THP-1 cells) was over 10000 nM; with SW480 colon cancer cells it was 1600 nM; in assay [1], 1700 nM; in assay [2], 2700 nM; in assay [3], over 10000 nM. For the same molecule, the Emax in assay [2] turned out to be 114%.
In the case of `CN1CCN(c2cncc3[nH]c(-c4n[nH]c5ccc(-c6cncc(CNCc7ccccc7)c6)cc45)cc23)CC1` [Compound 248], the EC50 with IL-6 (THP-1 cells) is 3590 nM; with SW480 colon cancer cells, 3630 nM; in assay [1], 1160 nM; in assay [2], 30 nM; in assay [3] it was 3340 nM. Moreover, the Emax in assay [2] amounted to 101%.
Take `CN(C)c1cncc(-c2ccc3[nH]nc(-c4cc5c(-c6ccoc6)cncc5[nH]4)c3c2)c1` [Compound 315, 5-(3-(4-(Furan-3-yl)-1H-pyrrolo[2,3-c]pyridin-2-yl)-1H-indazol-5-yl)-N,N-dimethylpyridin-3-amine]: the EC50 in the assay on IL-6 (THP-1 cells) came to 505 nM; in the assay on SW480 colon cancer cells, 559 nM; in assay [1], 1510 nM; in assay [2], 300 nM; in assay [3], 1450 nM. Besides, the Emax in assay [2] was 69%.
As for `CN1CCN(c2cncc3[nH]c(-c4n[nH]c5ccc(-c6cccnc6)cc45)cc23)CC1` [Compound 228, 3-(4-(4-Methylpiperazin-1-yl)-1H-pyrrolo[2,3-c]pyridin-2-yl)-5-(pyridin-3-yl)-1H-indazole], the EC50 was found to be 1370 nM in the assay on IL-6 (THP-1 cells), 4020 nM with SW480 colon cancer cells, 774 nM in assay [1] and 4060 nM in assay [3]. The Emax in assay [2] was 20%.
